The values that follow come from patent US20160045505A1, “COMPOUNDS AND COMPOSITIONS FOR THE TREATMENT OF PARASITIC DISEASES” (NOVARTIS AG, priority 2013, published 2016).

Assay [1] has as its system L. donovani HU3 strain in mouse peritoneal macrophages. Nature of the assay: Assay for proliferation of Leishmania parasites in infected mouse peritoneal macrophages (SybrGreen staining, high-content imaging, 5 days). In kind it is cell-based, Leishmania donovani. As to conditions: Leishmania donovani, Peritoneal macrophage, L. donovani in mouse peritoneal macrophages, inhibition of proliferation; read-out: L. donovani Macrophage EC50.

In assay [2] the test system is Trypanosoma brucei Lister 427 strain, bloodstream form. Nature of the assay: Assay for proliferation of kinetoplastid parasite Trypanosoma brucei (Cell Titer Glo, 48 hours). Format: cell-based. The following applies: Trypanosoma brucei, read-out: T. brucei EC50. A digest of the protocol:
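Bloodstream-form T. brucei Lister 427 in HMI-9 medium was exposed to compound (DMSO vehicle) for 48 hours at 37° C, 5% CO2. Parasite growth was read as ATP by CellTiter-Glo luminescence, with EC50 calculated from percent inhibition.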
Background: In ATP-based viability assays light output follows the ATP content of the culture.

The test system of assay [3] is Trypanosoma cruzi amastigotes (Tulahuen strain expressing Lac-Z) cultured in 3T3 fibroblast cells. In words: microbe, parasite or virus in culture. As to conditions: Trypanosoma cruzi, TULAHUEN, Fibroblast, T. cruzi amastigotes in 3T3 fibroblast cells, inhibition of proliferation; read-out: T cruzi EC50. In kind it is cell-based.
The test system of assay [4] is Leishmania donovani axenic amastigote parasites. Nature of the assay: Leishmania donovani axenic amastigote proliferation assay (Cell TiterGlo luminescence, 2 day incubation). In kind it is cell-based. The following applies: Leishmania donovani, axenic amastigotes, inhibition of proliferation; read-out: L. donovani amastigotes EC50.
Setting [5] is: T. brucei Lister 427 bloodstream form, inhibition of proliferation.

Each structure is given as a SMILES string. Where two headings read alike, the source gives them in different places.

Regarding `CC(C)OC(=O)Nc1cnc2nc(-c3cc(NC(=O)c4cnco4)ccc3Cl)cn2c1` [Compound 52], the EC50 in assay [1] was 2740 nM; in assay [2] (setting [5]), 571 nM; in assay [3] it was 1280 nM; in assay [4], 261 nM.

On to `Cc1ncoc1C(=O)Nc1ccc(Cl)c(-c2cn3cc(NC(=O)OC(C)C)cnc3n2)c1` [Compound 53], for which the half-maximal effective concentration (EC50) in assay [1] was 6270 nM; in assay [2] (setting [5]) it was 386 nM; in assay [3], 572 nM; in assay [4], 448 nM.

For `CC(C)OC(=O)Nc1cnc2nc(-c3cc(NC(=O)c4cnc(C5CC5)o4)ccc3Cl)cn2c1` [Compound 60], the concentration giving a half-maximal response (EC50) in assay [1] was found to be 1100 nM; in assay [2] (setting [5]), 1540 nM; in assay [3], 444 nM; in assay [4] it was 727 nM.

Regarding `CC(C)OC(=O)Nc1cnc2nc(-c3cc(NC(=O)c4ccc(Cl)s4)ccc3F)cn2c1` [Compound 66], the half-maximal effective concentration (EC50) in assay [1] was determined as 16100 nM; in assay [2] (setting [5]) it was 1840 nM; in assay [3], 444 nM; in assay [4], 2810 nM.

For `Cc1nc(C)c(C(=O)Nc2ccc(F)c(-c3cn4cc(NC(=O)OC(C)C)cnc4n3)c2)s1` [Compound 68], the 50% effective concentration (EC50) in assay [1] is 39200 nM; in assay [2] (setting [5]), 14200 nM; in assay [3], 3600 nM; in assay [4], 14200 nM.

For the compound `Cc1nc(C(=O)Nc2ccc(F)c(-c3cn4cc(NC(=O)OC(C)C)cnc4n3)c2)c(C(F)(F)F)o1` [Compound 69], the EC50 in assay [1] was 3300 nM; in assay [2] (setting [5]) it was 3120 nM; in assay [3], 403 nM; in assay [4], 1400 nM.

Take `CC(C)OC(=O)Nc1cnc2nc(-c3cc(NC(=O)c4ccc(Br)o4)ccc3F)cn2c1` [Compound 70]: the concentration for a half-maximal effect (EC50) in assay [1] turned out to be 190 nM; in assay [2] (setting [5]) it was 54 nM; in assay [3], 72 nM; in assay [4], 136 nM.

For the compound `CC(C)OC(=O)Nc1cnc2nc(-c3cc(NC(=O)c4ccnn4C)ccc3F)cn2c1` [Compound 74], the concentration giving a half-maximal response (EC50) in assay [1] came out at 3890 nM; in assay [2] (setting [5]), 490 nM; in assay [3] it was 608 nM; in assay [4] it was 608 nM.

As to `CC(C)OC(=O)Nc1cnc2nc(-c3cc(NC(=O)c4cccs4)ccc3F)cn2c1` [Compound 75], the concentration giving a half-maximal response (EC50) in assay [1] is over 6020 nM; in assay [2] (setting [5]), 482 nM; in assay [3], 150 nM; in assay [4], 581 nM.

`Cc1ncoc1C(=O)Nc1ccc(F)c(-c2cn3cc(NC(=O)OC(C)C)cnc3n2)c1` [Compound 76]: the EC50 in assay [1] was 4220 nM; in assay [2] (setting [5]) it was 348 nM; in assay [3], 636 nM; in assay [4], 305 nM.

With `CC(C)OC(=O)Nc1cnc2nc(-c3cc(NC(=O)c4cnco4)ccc3F)cn2c1` [Compound 78], the 50% effective concentration (EC50) in assay [1] was 6410 nM; in assay [2] (setting [5]) it was 553 nM; in assay [3] it was 1910 nM; in assay [4], 307 nM.

`Cc1cc(C(=O)Nc2ccc(F)c(-c3cn4cc(NC(=O)OC(C)C)cnc4n3)c2)[nH]n1` [Compound 79]: the concentration giving a half-maximal response (EC50) in assay [1] was over 50000 nM; in assay [2] (setting [5]), 7350 nM; in assay [3], over 20000 nM; in assay [4], 7280 nM.

`Cc1ccc(C(=O)Nc2ccc(F)c(-c3cn4cc(NC(=O)OC(C)C)cnc4n3)c2)o1` [Compound 80]: the 50% effective concentration (EC50) in assay [1] is 244 nM; in assay [2] (setting [5]) it was 59 nM; in assay [3], 63 nM; in assay [4], 89 nM.

As to `CC(C)OC(=O)Nc1cnc2nc(-c3cc(NC(=O)c4c[nH]cn4)ccc3F)cn2c1` [Compound 81], the 50% effective concentration (EC50) in assay [1] was over 50000 nM; in assay [2] (setting [5]), over 50000 nM; in assay [3], over 20000 nM; in assay [4], over 25000 nM.

Take `CC(C)OC(=O)Nc1cnc2nc(-c3cc(NC(=O)c4ccc(Br)s4)ccc3F)cn2c1` [Compound 82]: the 50% effective concentration (EC50) was found to be 3900 nM in assay [1], 4200 nM in assay [2] (setting [5]), 1210 nM in assay [3] and 4990 nM in assay [4].

On to `CC(=O)c1ccc(C(=O)Nc2ccc(F)c(-c3cn4cc(NC(=O)OC(C)C)cnc4n3)c2)s1` [Compound 83], for which the EC50 in assay [1] is 6810 nM; in assay [2] (setting [5]), over 50000 nM; in assay [3], 7040 nM; in assay [4], 15400 nM.

On to `CC(C)OC(=O)Nc1cnc2nc(-c3cc(NC(=O)[C@H](N)c4ccccc4)ccc3F)cn2c1` [Compound 85], for which the EC50 in assay [1] is 15200 nM; in assay [2] (setting [5]) it was 32700 nM; in assay [3], 10800 nM; in assay [4], over 25000 nM.

Take `Cc1cc(C(=O)Nc2ccc(F)c(-c3cn4cc(NC(=O)OC(C)C)cnc4n3)c2)no1` [Compound 86]: the EC50 is over 50000 nM in assay [1], 924 nM in assay [2] (setting [5]), over 20000 nM in assay [3] and over 25000 nM in assay [4].

`CC(C)OC(=O)Nc1cnc2nc(-c3cc(NC(=O)C(C)N)ccc3F)cn2c1` (stereo not shown) [Compound 87]: the concentration for a half-maximal effect (EC50) in assay [1] was over 43700 nM; in assay [2] (setting [5]), over 50000 nM; in assay [3], over 20000 nM; in assay [4] it was over 25000 nM.

Take `Cc1ccc(C(=O)Nc2ccc(F)c(-c3cn4cc(NC(=O)OC(C)C)cnc4n3)c2)s1` [Compound 88]: the EC50 was found to be 19700 nM in assay [1], 1180 nM in assay [2], 1170 nM in assay [3] and 5370 nM in assay [4].

Consider `CC(C)OC(=O)Nc1cnc2nc(-c3cc(NC(=O)c4cncs4)ccc3F)cn2c1` [Compound 90], for which the 50% effective concentration (EC50) in assay [1] is 7580 nM; in assay [2] (setting [5]), 610 nM; in assay [3], 1460 nM; in assay [4], 894 nM.

On to `CC(C)OC(=O)Nc1cnc2nc(-c3cc(NC(=O)c4nccn4C)ccc3F)cn2c1` [Compound 97], for which the EC50 in assay [1] was found to be 18200 nM; in assay [2] (setting [5]) it was 13200 nM; in assay [3], 10500 nM; in assay [4] it was 12000 nM.

As for `CC(C)OC(=O)Nc1cnc2nc(-c3cc(NC(=O)c4ccn(C)n4)ccc3F)cn2c1` [Compound 98], the EC50 in assay [1] turned out to be 3340 nM; in assay [2] (setting [5]) it was 503 nM; in assay [3], 549 nM; in assay [4], 645 nM.

As to `CC(C)OC(=O)Nc1cnc2nc(-c3cc(NC(=O)C4CC(=O)C4)ccc3F)cn2c1` [Compound 101], the concentration giving a half-maximal response (EC50) in assay [1] was found to be 2520 nM; in assay [2] (setting [5]) it was 3490 nM; in assay [3] it was 9950 nM; in assay [4], 636 nM.

In the case of `CC(C)OC(=O)Nc1cnc2nc(-c3cc(NC(=O)C4CCC4)ccc3F)cn2c1` [Compound 102], the half-maximal effective concentration (EC50) in assay [1] was determined as 1710 nM; in assay [2] (setting [5]) it was 492 nM; in assay [3], 464 nM; in assay [4], 540 nM.

For `CC(C)OC(=O)Nc1cnc2nc(-c3cc(NC(=O)/C=C/CN(C)C)ccc3F)cn2c1` [Compound 103], the concentration for a half-maximal effect (EC50) in assay [1] was found to be 9860 nM; in assay [2] (setting [5]) it was 5620 nM; in assay [3], 10800 nM; in assay [4], 2150 nM.

On to `CCC(C)C(=O)Nc1ccc(F)c(-c2cn3cc(NC(=O)OC(C)C)cnc3n2)c1` (stereo not shown) [Compound 104], for which the EC50 is over 50000 nM in assay [1], 1210 nM in assay [2] (setting [5]), 1340 nM in assay [3] and 2390 nM in assay [4].

On to `CC(C)OC(=O)Nc1cnc2nc(-c3cc(NC(=O)C(C)C)ccc3F)cn2c1` [Compound 105], for which the EC50 in assay [1] is over 50000 nM; in assay [2] (setting [5]) it was 1480 nM; in assay [3], 1460 nM; in assay [4], 2170 nM.

For orientation: EC50 means the concentration that produces a half-maximal response.
